Experimental data: patent US20250032476A1, “ALPHA-2A ADRENERGIC RECEPTOR MODULATORS AND USES THEREOF” (The Regents of the University of California, priority 2021, published 2025)
Read-outs that look alike come from different tables or passages of the source.

Columns and labels:
[1] = target: T1, human α2AAR (Homo sapiens (Human), UniProt P08913); assay: Radioligand competition binding to human α2AAR (HEK293T membranes, [3H]RX82,1002); details: human α2AAR
[2] = Metabolic stability in male rat liver microsomes; format: in vitro ADME; details: 1 hour
[3] = target: T1, human α2AAR; assay: α2AAR internalization assay with rGFP-CAAX and rGFP-FYVE biosensors; format: cell-based; details: α2AAR-RlucII/rGFP-CAAX biosensor
[4] = target: ALPHA-2A ADRENERGIC RECEPTOR (Homo sapiens (Human), UniProt P08913); assay: Gi recruitment (G protein); format: cell-based; details: Gi recruitment
[5] = target: T1, human α2AAR; assay: DiscoverX HitHunter cAMP G-protein activation assay

Sequence of ALPHA-2A ADRENERGIC RECEPTOR (P08913 whole entry): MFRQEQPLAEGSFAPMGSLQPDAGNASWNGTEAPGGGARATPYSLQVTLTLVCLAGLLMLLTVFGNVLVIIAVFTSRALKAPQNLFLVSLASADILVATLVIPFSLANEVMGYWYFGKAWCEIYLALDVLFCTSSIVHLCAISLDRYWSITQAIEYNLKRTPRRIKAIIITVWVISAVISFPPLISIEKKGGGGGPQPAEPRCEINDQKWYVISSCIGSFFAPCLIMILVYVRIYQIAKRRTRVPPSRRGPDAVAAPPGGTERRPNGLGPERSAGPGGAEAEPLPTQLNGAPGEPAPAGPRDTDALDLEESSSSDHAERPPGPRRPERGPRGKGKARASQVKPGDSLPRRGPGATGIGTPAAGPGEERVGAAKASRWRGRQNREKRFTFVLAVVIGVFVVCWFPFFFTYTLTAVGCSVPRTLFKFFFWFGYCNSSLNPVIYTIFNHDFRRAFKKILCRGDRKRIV
T1 sequence (P08913 whole entry): as above

Ki ([1]; mean ± SEM (Table 3), read-out: Ki): 0.037 ± 0.0051 µM
Ki ([1]; mean ± s.e.m., read-out: Ki for α2AAR): 0.037 ± 0.0051 µM
Metabolic stability, compound remaining [2]: remain largely unmodified after 1 hour
Disappearance of α2AAR from the plasma membrane (internalization) [3]: no effect
functional classification (agonist / weak agonist) ([4]; Table 6, result in words): agonist
EC50 ([4]; Table 6, read-out: EC50): 0.0041 µM
Emax ([4]; Table 6, read-out: Emax (%)): 89%
EC50 [5]: 0.018 µM
Emax ([5]; read-out: Gi/o Emax): 96%
Structure (SMILES): Fc1cccc2c(Nc3ccncc3)cccc12 [Compound 7075, N-(5-fluoronaphthalen-1-yl)pyridin-4-amine]
